Test results from ChEMBL document CHEMBL6074649, “An insight into recent developments in imidazole based heterocyclic compounds as anticancer agents: Synthesis, SARs, and mechanism of actions” (Eur J Med Chem, 2024).
Values after ≈ are worked out from the molar mass of the structure shown.

Columns and labels:
A549 [1] = assay: Antiproliferative activity against human A549 cells assessed as reduction in cell growth incubated for 24 hrs by MTT assay; format: functional, cell-based; details: A549, 24 h
MCF7 [2] = assay: Antiproliferative activity against human MCF7 cells assessed as reduction in cell growth incubated for 24 hrs by MTT assay; format: functional, cell-based; details: MCF7, 24 h
HepG2 [3] = assay: Antiproliferative activity against human HepG2 cells assessed as reduction in cell growth incubated for 24 hrs by MTT assay; format: functional, cell-based; details: HepG2, 24 h
[4] = Antiproliferative activity against human MCF7/MX cells assessed as reduction in cell growth incubated for 24 hrs by MTT assay; format: functional, cell-based
[5] = Anticancer activity against human UKF-NB-3 cells by MTT assay; format: functional, cell-based
A549 [6] = assay: Anticancer activity against human A549 cells by MTT assay; format: functional, cell-based
NCI-H1299 = assay: Anticancer activity against human NCI-H1299 cells by MTT assay; format: functional, cell-based
MCF7 [7] = assay: Anticancer activity against human MCF7 cells at 1.5 uM relative to control; format: functional
MCF7 [8] = assay: Anticancer activity against human MCF7 cells at 1.9 uM relative to control; format: functional
MCF7 [9] = assay: Anticancer activity against human MCF7 cells at 3.9 uM relative to control; format: functional
MCF7 [10] = assay: Anticancer activity against human MCF7 cells at 7.8 uM relative to control; format: functional
MCF7 [11] = assay: Anticancer activity against human MCF7 cells at 15.6 uM relative to control; format: functional
MCF7 [12] = assay: Anticancer activity against human MCF7 cells at 31.25 uM relative to control; format: functional
MCF7 [13] = assay: Anticancer activity against human MCF7 cells at 62.5 uM relative to control; format: functional
MCF7 [14] = assay: Anticancer activity against human MCF7 cells at 125 uM relative to control; format: functional
MCF7 [15] = assay: Anticancer activity against human MCF7 cells at 500 uM relative to control; format: functional
Leukemia cell = assay: Growth inhibition of human Leukemia cell; format: functional
[16] = Growth inhibition of human Non-small cell lung cancer cell line; format: functional
[17] = Growth inhibition of human Colon cancer cell line; format: functional
CNS carcinoma cell = assay: Growth inhibition of human CNS carcinoma cell; format: functional
[18] = Growth inhibition of human Melanoma cell; format: functional
MDA-MB-231 = assay: Antiproliferative activity against human MDA-MB-231 cells assessed as reduction in cell growth by MTT assay; format: functional, cell-based
[19] = Antiproliferative activity against human MCF-10A cells assessed as reduction in cell growth by MTT assay; format: toxicity, cell-based
[20] = Antiproliferative activity against human HepG2 cells assessed as reduction in cell growth by MTT assay; format: toxicity, cell-based
L02 = assay: Antiproliferative activity against human LO2 cells assessed as reduction in cell growth by MTT assay; format: functional, cell-based
IMR-32 = assay: Anticancer activity against human IMR-32 cells assessed as reduction in cell viability incubated for 48 hrs by MTT assay; format: functional, cell-based; details: IMR-32, 48 h
A549 [21] = assay: Anticancer activity against human A549 cells assessed as reduction in cell viability incubated for 48 hrs by MTT assay; format: functional, cell-based; details: A549, 48 h
HeLa = assay: Anticancer activity against human HeLa cells assessed as reduction in cell viability incubated for 48 hrs by MTT assay; format: functional, cell-based
[22] = Anticancer activity against HEK293 cells assessed as reduction in cell viability incubated for 48 hrs by MTT assay; format: toxicity, cell-based; details: human
MCF7 [23] = assay: Cytotoxicity against human MCF7 cells assessed as reduction in cell viability by MTT assay; format: functional, cell-based
A549 [24] = assay: Cytotoxicity against human A549 cells assessed as reduction in cell viability by MTT assay; format: functional, cell-based
COLO 205 = assay: Cytotoxicity against human COLO 205 cells assessed as reduction in cell viability by MTT assay; format: functional, cell-based
A2780 = assay: Cytotoxicity against human A2780 cells assessed as reduction in cell viability by MTT assay; format: functional, cell-based
AGS = assay: Antiproliferative activity against human AGS cells assessed as reduction in cell viability incubated for 24 hrs by MTT assay; format: functional, cell-based
A549 [25] = assay: Antiproliferative activity against human A549 cells assessed as reduction in cell viability incubated for 24 hrs by MTT assay; format: functional, cell-based; details: A549, 24 h
[26] = Antiproliferative activity against human MRC5 cells assessed as reduction in cell viability incubated for 24 hrs by MTT assay; format: toxicity, cell-based
HepG2 [27] = assay: Cytotoxicity against human HepG2 cells assessed as reduction in cell growth incubated for 24 hrs by MTT assay; format: functional, cell-based; details: HepG2, 24 h
MCF7 [28] = assay: Cytotoxicity against human MCF7 cells assessed as reduction in cell growth measured for 24 hrs by MTT assay; format: functional, cell-based; details: MCF7, 24 h
Caco-2 = assay: Cytotoxicity against human Caco-2 cells assessed as reduction in cell growth measured for 24 hrs by MTT assay; format: functional, cell-based; details: Caco-2, 24 h
A549 [29] = assay: Antiproliferative activity against human A549 cells assessed as reduction in cell viability incubated for 48 hrs by CCK-8 assay; format: functional, cell-based; details: A549, 48 h
U-251 = assay: Antiproliferative activity against human U-251 cells assessed as reduction in cell viability incubated for 48 hrs by CCK-8 assay; format: functional, cell-based; details: U-251, 48 h
HepG2 [30] = assay: Antiproliferative activity against human HepG2 cells assessed as reduction in cell viability incubated for 48 hrs by CCK-8 assay; format: functional, cell-based; details: HepG2, 48 h

CCSc1nc(/C=C/C(=O)c2cc(OC)c(OC)c(OC)c2)cn1Cc1ccccc1
IC50 (A549 [1]): 7.05 µM | IC50 (MCF7 [2]): 9.88 µM | IC50 (HepG2 [3]): 22 µM | IC50 [4]: 20.2 µM

O=C(Cn1cnc(-c2ccccc2)c1-c1ccccc1)NCCOC(=O)C12CC3CC(CC(C3)C1)C2
IC50 [5]: 8.53 µg/mL (≈ 17.6 µM) | IC50 (A549 [6]): 43.2 µg/mL (≈ 89.3 µM) | IC50 (NCI-H1299): > 100 µg/mL

Fc1ccc(Cn2c(-c3ccc(Br)cc3)nc(-c3ccccc3)c2-c2ccccc2)cc1
inhibition at 1.5 µM (MCF7 [7]): 84% | inhibition at 1.9 µM (MCF7 [8]): 75% | inhibition at 3.9 µM (MCF7 [9]): 69% | inhibition at 7.8 µM (MCF7 [10]): 63% | inhibition at 15.6 µM (MCF7 [11]): 36% | inhibition at 31.25 µM (MCF7 [12]): 30% | inhibition at 62.5 µM (MCF7 [13]): 24% | inhibition at 125 µM (MCF7 [14]): 20% | inhibition at 500 µM (MCF7 [15]): 5%

Oc1ccc(/C=C/c2cc(O)cc(O)c2)cc1 [RESVERATROL]
GI50 (Leukemia cell): 15.9 µM | GI50 [16]: 61.7 µM | GI50 [17]: 56 µM | GI50 (CNS carcinoma cell): 70.8 µM | GI50 [18]: 64.6 µM

c1ccc(-c2nc(-c3c[nH]c4ccccc34)[nH]c2-c2ccccc2)cc1
IC50 (MDA-MB-231): 31.4 µM | IC50 [19]: 31.8 µM | IC50 [20]: 29.3 µM | IC50 (L02): 34.7 µM

COc1ccc(C2=N[C@H](c3ccc(Cl)cc3)[C@H](c3ccc(Cl)cc3)N2C(=O)N2CCNC(=O)C2)c(OC(C)C)c1
IC50 [5]: 5.2 µg/mL (≈ 8.94 µM) | IC50 (A549 [6]): 11.1 µg/mL (≈ 19.1 µM) | IC50 (NCI-H1299): > 100 µg/mL

Cc1ccc(Nn2c(SCC(=O)Nc3nc(-c4ccccc4)cs3)nc(C)c2C)cc1
GI50 (Leukemia cell): 3.91 µM

Oc1ccc(-n2cnc(-c3cc(O)cc(O)c3)c2)cc1
GI50 (Leukemia cell): 4.1 µM | GI50 [16]: 28.8 µM | GI50 [17]: 11.5 µM | GI50 (CNS carcinoma cell): 11.5 µM | GI50 [18]: 12.9 µM

COc1ccc(Nn2c(SCC(=O)Nc3nc(-c4ccc(Cl)cc4)cs3)nc(C)c2C)cc1
GI50 (Leukemia cell): 4.15 µM

O=c1c(-c2nc(-c3ccc(Br)cc3)c(-c3ccc(Br)cc3)[nH]2)coc2ccccc12
IC50 (IMR-32): 29.4 µM | IC50 (A549 [21]): 27.1 µM | IC50 (HeLa): 24.7 µM | IC50 at 48 h [22]: 82.3 µM

Brc1ccc(-c2nc(-c3c[nH]c4ccccc34)[nH]c2-c2ccc(Br)cc2)cc1
IC50 (IMR-32): 10.5 µM | IC50 (A549 [21]): 9.52 µM | IC50 (HeLa): 11.2 µM | IC50 at 48 h [22]: 98.5 µM

COc1cc(OC)c(S(=O)(=O)n2ccnc2-c2ccon2)c(OC)c1
IC50 (MCF7 [23]): 0.41 µM | IC50 (A549 [24]): 0.29 µM | IC50 (COLO 205): 0.26 µM | IC50 (A2780): 1.22 µM

Fc1ccc(Cn2c(-c3ccc(Cl)cc3)nc(-c3ccccc3)c2-c2ccccc2)cc1
inhibition at 1.5 µM (MCF7 [7]): 88% | inhibition at 1.9 µM (MCF7 [8]): 65% | inhibition at 3.9 µM (MCF7 [9]): 78% | inhibition at 7.8 µM (MCF7 [10]): 63% | inhibition at 15.6 µM (MCF7 [11]): 55% | inhibition at 31.25 µM (MCF7 [12]): 39% | inhibition at 62.5 µM (MCF7 [13]): 30% | inhibition at 125 µM (MCF7 [14]): 24% | inhibition at 500 µM (MCF7 [15]): 12%

COc1ccc(C(=O)/C=C/c2nccn2C)cc1
IC50 (AGS): 20.9 µM | IC50 (A549 [25]): 61.7 µM | IC50 at 24 h [26]: 67.4 µM

c1ccc(-c2nc(-c3ccc(OCc4cc(COc5ccc(-c6nc(-c7ccccc7)c(-c7ccccc7)[nH]6)cc5)c(COc5ccc(-c6nc(-c7ccccc7)c(-c7ccccc7)[nH]6)cc5)cc4COc4ccc(-c5nc(-c6ccccc6)c(-c6ccccc6)[nH]5)cc4)cc3)[nH]c2-c2ccccc2)cc1
IC50 (HepG2 [27]): 19.1 µM | IC50 (MCF7 [28]): 12.6 µM | IC50 (Caco-2): 34.8 µM

CN(C)c1ccc(/C=C/c2ncc([N+](=O)[O-])n2CCOC(=O)c2nccc3ccccc23)cc1
IC50 (A549 [29]): 0.43 µM | IC50 (U-251): 0.14 µM | IC50 (HepG2 [30]): 0.17 µM

O=[N+]([O-])c1ccccc1-c1nc(-c2ccc(Br)cc2)c(-c2ccc(Br)cc2)[nH]1
IC50 (IMR-32): 10.3 µM | IC50 (A549 [21]): 12.5 µM | IC50 (HeLa): 13.6 µM | IC50 at 48 h [22]: 94.3 µM
